What was measured:
[1] = test system: subjects with diagnosed alcoholic liver disease (alcoholic fatty liver); test: Clinical (oral), subjects with alcoholic fatty liver; assay type: in vivo, human; conditions: oral 2-100 mg/day for 6 months
Procedure: Subjects are permitted their usual other medications (e.g. antidiabetic medications such as metformin or […]) but not glitazones, PPAR agonists, OCA, or similar medications. […] At each visit, after a 12-hour fast, blood is drawn and urine collected; and a standard metabolic panel, complete blood count, and standard urinalysis are performed. Blood is analyzed for bilirubin, creatinine, prothrombin time (International Normalized Ratio—INR), TGs, and liver transaminases. The subjects also maintain health diaries, which are reviewed at each visit.

PPARα = molecular target: T1, PPARα (Homo sapiens, UniProt Q07869); test: Specificity compared with PPARα
T1 sequence (Q07869 1-468): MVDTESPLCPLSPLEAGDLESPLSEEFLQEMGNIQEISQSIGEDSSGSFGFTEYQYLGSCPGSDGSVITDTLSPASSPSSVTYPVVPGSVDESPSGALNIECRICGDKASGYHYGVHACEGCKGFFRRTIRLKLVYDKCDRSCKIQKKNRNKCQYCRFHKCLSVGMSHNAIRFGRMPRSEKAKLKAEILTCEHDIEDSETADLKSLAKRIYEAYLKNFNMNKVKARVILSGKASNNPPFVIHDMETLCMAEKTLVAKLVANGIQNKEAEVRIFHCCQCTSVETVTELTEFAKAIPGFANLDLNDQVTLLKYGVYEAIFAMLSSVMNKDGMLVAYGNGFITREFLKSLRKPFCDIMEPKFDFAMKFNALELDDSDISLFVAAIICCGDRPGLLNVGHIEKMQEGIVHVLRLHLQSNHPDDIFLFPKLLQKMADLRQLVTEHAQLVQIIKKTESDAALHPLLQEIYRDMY
Description: It is specific (>600-fold and>2500-fold compared with PPARα and peroxisome proliferator-activated receptor-γreceptors). PPARδ activation stimulates fatty acid oxidation and utilization, improves plasma lipid and lipoprotein metabolism, glucose utilization, and mitochondrial respiration, and preserves stem cell homeostasis.

[2] = test system: atherogenic diet-fed obese diabetic (Alms1 mutant (foz/foz)) mice; conditions: foz/foz mice on atherogenic diet; cited from earlier work
[3] = test system: subjects with diagnosed alcoholic liver disease (acute alcoholic hepatitis); test: Clinical (intravenous), subjects with acute alcoholic hepatitis; assay type: in vivo, human; conditions: intravenous 2-100 mg/day for up to 30 days
Procedure: At each assessment blood is drawn; and a standard metabolic panel and complete blood count are performed. Blood is analyzed for bilirubin, creatinine, prothrombin time (International Normalized Ratio—INR), TGs, liver transaminases, high sensitivity C-reactive protein (hsCRP), interleukin-18, and TNF-α.

[4] = test system: wild-type female C57BL/6 mice; test: Lieber-DeCarli ethanol diet mouse model of alcoholic liver disease; assay type: in vivo; conditions: for liver histology, hematoxylin and eosin (H+E): formalin-fixed liver sections; for hepatic lipid accumulation, oil red staining: frozen liver sections; for ALT: plasma; for ALT / Total bile acids / Hepatic TGs / Plasma LPS / FA (fecal albumin): mean (SEM); for Total bile acids: LC-MS; for FA (fecal albumin): feces at 7.5 weeks
Description: Age-matched wild-type female C57BL/6 mice (Charles River, Wilmington, Mass.), 8-9 weeks old at the initiation of the study, were used.
The Lieber-DeCarli ethanol diet was originally developed by Charles Lieber and Leonore DeCarli in 1963. This diet allows for the prolonged exposure of ethanol in a rodent model and allows for modification to calories provided by ethanol. […] The caloric intake from ethanol was 0% on day 1, 10% on days 2 and 3, 20% on days 4 and 5, 30% from day 6 until the end of 6 weeks, and 36% for the last 2 weeks, for a total in-life time of eight weeks. The ethanol-fed mice also received one bolus dose of 33% v/v ethanol at 5 g/Kg on the last in-life day. The control diet contained an isocaloric substitution of isomaltose for the ethanol. […] In the prevention portions of the study, including with the control diet, seladelpar was added throughout the entire study period; in the intervention portion of the study, seladelpar was added only for the fifth through eighth weeks. Fresh feces were collected at 7.5 weeks. All mice were sacrificed after eight weeks; the ethanol-fed mice eight hours after the ethanol bolus. At sacrifice, body and liver weight were recorded; and blood/plasma, liver, gallbladder, small and large intestine (wall and contents) and cecum were harvested. Analyses included plasma ALT—to measure […]; hepatic TGs; plasma lipopolysaccharides (LPS)—to measure the extent of bacterial leakage from the intestine into the blood; fecal albumin (FA)—to measure the extent of albumin leakage from the blood into the intestine (feces); and total bile acids, measured by liquid chromatography-mass spectrometry (LC-MS) generally according to the method described in Hartmann et al., “Modulation of the Intestinal Bile Acid/Farnesoid X Receptor/Fibroblast Growth Factor 15 Axis Improves Alcoholic Liver Disease in Mice”, Hepatology, 67(6), 2150-2166 (2018).
The study results are given in the table below: standard errors of the means are in parentheses, n denotes the number of mice measured, and ANOVA denotes the significance value of an ANOVA analysis between groups 3, 4, and 5:
Formalin-fixed liver sections were stained for histological examination with hematoxylin and eosin (H+E).
Frozen liver sections were cut and stained with oil red 0 for hepatic lipid accumulation analysis.

[5] = alcohol diet (group 3 vs groups 4 and 5, prevention and intervention)
[6] = alcohol diet, untreated group 3 vs seladelpar groups 4 and 5, ANOVA <0.001
[7] = group 2: control diet with seladelpar prevention, 10 mg/Kg/day oral, 8 weeks

- specificity for PPARδ compared with PPARα (PPARα): > 600 fold
SMILES: CCO[C@H](COc1ccc(C(F)(F)F)cc1)CSc1ccc(OCC(=O)O)c(C)c1 [seladelpar, [4-({(2R)-2-ethoxy-3-[4-(trifluoromethyl)phenoxy]propyl}sulfanyl)-2-methylphenoxy]acetic acid]
- improvement in disease (reductions in MRI-PDFF, TGs, liver transaminases) [1]: dose-related improvement
- NASH pathology [2]: improves NASH pathology (reducing hepatic steatosis and inflammation, and improving fibrosis)
- improvement in disease (reduction in liver transaminases, hsCRP, interleukin-18, TNF-α, Maddrey's discriminant function, MELD score) [3]: dose-related improvement
- liver histology, hematoxylin and eosin (H+E) [4, 5]: significant reduction of steatosis and restoration of a more normal architecture
- hepatic lipid accumulation, oil red staining [4, 5]: significant reduction of stainable lipid droplets
- change in serum ALT ([4]; alcohol diet, untreated group 3 vs seladelpar groups 4 and 5 (prevention and intervention), ANOVA <0.001): significant reductions (improvements)
- change in serum LPS ([4]; alcohol diet, untreated group 3 vs seladelpar groups 4 and 5, ANOVA 0.034): significant reductions (improvements)
- change in hepatic TGs [4, 6]: significant reductions (improvements)
- change in total bile acids [4, 6]: significant reductions (improvements)
- liver histology, hematoxylin and eosin (H+E) ([4]; control diet (groups 1 vs 2)): no significant change
- hepatic lipid accumulation, oil red staining ([4]; control diet (groups 1 vs 2)): no significant change
- effect on ALT, hepatic TGs, LPS, fecal albumin and total bile acids ([4]; control diet groups, seladelpar prevention (group 2 vs 1)): does not significantly affect
- ALT ([4]; group 2: control diet with seladelpar prevention, 10 mg/Kg/day oral in diet for 8 weeks): 20.8 (3.5) U/L
- Total bile acids [4, 7]: 14.2 (0.6) μmol/100 g body weight
- Hepatic TGs [4, 7]: 18.9 (1.8) mg/g
- Plasma LPS [4, 7]: 787 (108) ng/mL
- FA (fecal albumin) ([4]; group 2: control diet with seladelpar prevention, 10 mg/Kg/day oral): 95 (12) ng/mg
- ALT ([4]; group 4: ethanol diet with seladelpar prevention, 10 mg/Kg/day oral in diet for 8 weeks, untreated ethanol group 3: 83.3 (16.7)): 37.8 (4.1) U/L
- Total bile acids ([4]; group 4: ethanol diet with seladelpar prevention, 10 mg/Kg/day oral, 8 weeks, group 3: 23.7 (1.6)): 16.5 (1.1) μmol/100 g body weight
- Hepatic TGs ([4]; group 4: ethanol diet with seladelpar prevention, 10 mg/Kg/day oral, 8 weeks, group 3: 29.6 (2.0)): 21.8 (1.3) mg/g
- Plasma LPS ([4]; group 4: ethanol diet with seladelpar prevention, 10 mg/Kg/day oral, 8 weeks, group 3: 1064 (204)): 723 (66) ng/mL
- FA (fecal albumin) ([4]; group 4: ethanol diet with seladelpar prevention, 10 mg/Kg/day oral, group 3: 135 (15)): 98 (8) ng/mg
- FA (fecal albumin) ([4]; group 5: ethanol diet with seladelpar intervention, 10 mg/Kg/day oral from week 5, group 3: 135 (15)): 112 (9) ng/mg
- ALT ([4]; group 5: ethanol diet with seladelpar intervention, 10 mg/Kg/day oral in diet, weeks 5-8, untreated ethanol group 3: 83.3 (16.7)): 30.9 (4.1) U/L
- Total bile acids ([4]; group 5: ethanol diet with seladelpar intervention, 10 mg/Kg/day oral, weeks 5-8, group 3: 23.7 (1.6)): 16.0 (1.1) μmol/100 g body weight
- Hepatic TGs ([4]; group 5: ethanol diet with seladelpar intervention, 10 mg/Kg/day oral, weeks 5-8, group 3: 29.6 (2.0)): 20.5 (1.3) mg/g
- Plasma LPS ([4]; group 5: ethanol diet with seladelpar intervention, 10 mg/Kg/day oral, weeks 5-8, group 3: 1064 (204)): 634 (59) ng/mL
